Assay results reported in the supplement of paper PMC10307832.

How the values were obtained:
Experiment in all cases: relative viability (nuclei count vs DMSO), 5 days (fraction); higher = more cells survive
Dasatinib + Trametinib = compound: Cc1nc(Nc2ncc(C(=O)Nc3c(C)cccc3Cl)s2)cc(N2CCN(CCO)CC2)n1 [Dasatinib] + CC(=O)Nc1cccc(-n2c(=O)n(C3CC3)c(=O)c3c(Nc4ccc(I)cc4F)n(C)c(=O)c(C)c32)c1 [Trametinib] (partner 0.02 µM)
Method in brief: (§1)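 Lung cancer cell lines were pin-tool dosed in 1536-well plates on the day after seeding, with either a lone drug or a fixed anchor-drug dose plus five library-drug doses (not always all listed) in √10 steps. Nuclei were counted on 4× images after 5 days. Relative viability is the ratio of treated-well to vehicle-well nuclei counts, with each value a median of duplicate plates.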

Dasatinib + Crizotinib = compound: Cc1nc(Nc2ncc(C(=O)Nc3c(C)cccc3Cl)s2)cc(N2CCN(CCO)CC2)n1 [Dasatinib] + C[C@@H](Oc1cc(-c2cnn(C3CCNCC3)c2)cnc1N)c1c(Cl)ccc(F)c1Cl [Crizotinib] (partner 1 µM)
Method in brief: as §1

XMD13-2 + Trametinib = compound: C1CC1C(=O)NC2=NNC3=C2C=CC(=C3)C4=CC(=CC=C4)C(=O)NC5CC5 [XMD13-2] + CC(=O)Nc1cccc(-n2c(=O)n(C3CC3)c(=O)c3c(Nc4ccc(I)cc4F)n(C)c(=O)c(C)c32)c1 [Trametinib] (partner 0.02 µM)
Method in brief: as §1

ALW-II-49-7 + Lapatinib = compound: Cc1ccc(C(=O)Nc2cccc(C(F)(F)F)c2)cc1Nc1cncc(C(N)=O)c1 [ALW-II-49-7] + CS(=O)(=O)CCNCc1ccc(-c2ccc3ncnc(Nc4ccc(OCc5cccc(F)c5)c(Cl)c4)c3c2)o1 [Lapatinib] (partner 2 µM)
Method in brief: as §1

Row | Cell Line | relative viability (Dasatinib + Trametinib; first compound 0.005 µM) | relative viability (Dasatinib + Trametinib; first compound 0.01581 µM) | relative viability (Dasatinib + Trametinib; first compound 0.05 µM) | relative viability (Dasatinib + Trametinib; first compound 0.1581 µM) | relative viability (Dasatinib + Trametinib; first compound 0.5 µM) | relative viability (Dasatinib + Crizotinib; first compound 0.005 µM) | relative viability (Dasatinib + Crizotinib; first compound 0.01581 µM) | relative viability (Dasatinib + Crizotinib; first compound 0.05 µM) | relative viability (Dasatinib + Crizotinib; first compound 0.1581 µM) | relative viability (Dasatinib + Crizotinib; first compound 0.5 µM) | relative viability (XMD13-2 + Trametinib; first compound 0.05 µM) | relative viability (XMD13-2 + Trametinib; first compound 0.1581 µM) | relative viability (XMD13-2 + Trametinib; first compound 0.5 µM) | relative viability (XMD13-2 + Trametinib; first compound 1.581 µM) | relative viability (XMD13-2 + Trametinib; first compound 5 µM) | relative viability (ALW-II-49-7 + Lapatinib; first compound 0.08 µM) | relative viability (ALW-II-49-7 + Lapatinib; first compound 0.253 µM) | relative viability (ALW-II-49-7 + Lapatinib; first compound 0.8 µM) | relative viability (ALW-II-49-7 + Lapatinib; first compound 2.53 µM) | relative viability (ALW-II-49-7 + Lapatinib; first compound 8 µM)
1 | NCI-H1651 | 0.848 | 0.852 | 0.834 | 0.77 | 0.679 | 0.874 | 0.776 | 0.841 | 0.768 | 0.704 | 0.909 | 0.843 | 0.789 | 0.869 | 0.834 | 0.719 | 0.879 | 0.672 | 0.776 | 0.794
2 | NCI-H1666 | 0.879 | 0.858 | 0.986 | 0.776 | 0.833 | 1.01 | 0.878 | 0.783 | 0.561 | 0.247 | 0.745 | 0.937 | 0.89 | 0.799 | 0.987 | 0.533 | 0.674 | 0.695 | 0.831 | 0.652
3 | NCI-H1734 | 0.665 | 0.59 | 0.612 | 0.599 | 0.512 | 0.553 | 0.485 | 0.515 | 0.301 | 0.35 | 0.783 | 0.653 | 0.753 | 0.662 | 0.627 | 1.07 | 1.07 | 1.05 | 1.04 | 0.898
4 | NCI-H1755 | 0.752 | 0.68 | 0.658 | 0.444 | 0.301 | 0.696 | 0.657 | 0.365 | 0.202 | 0.174 | 0.821 | 0.714 | 0.722 | 0.754 | 0.697 | 0.904 | 1.04 | 1.04 | 1.04 | 0.608
5 | NCI-H1792 | 0.343 | 0.272 | 0.324 | 0.218 | 0.0771 | 0.938 | 0.916 | 0.874 | 0.753 | 0.51 | 0.549 | 0.454 | 0.475 | 0.509 | 0.507 | 0.673 | 0.881 | 0.943 | 0.98 | 0.774
6 | NCI-H1915 | 0.291 | 0.245 | 0.228 | 0.151 | 0.0841 | 0.828 | 0.764 | 0.638 | 0.284 | 0.24 | 0.392 | 0.289 | 0.318 | 0.284 | 0.35 | 0.949 | 1.01 | 0.914 | 0.848 | 0.644
7 | NCI-H1944 | 0.389 | 0.367 | 0.348 | 0.218 | 0.153 | 1.06 | 0.847 | 0.779 | 0.327 | 0.233 | 0.486 | 0.393 | 0.429 | 0.458 | 0.411 | 0.82 | 0.915 | 0.843 | 0.889 | 0.623
8 | NCI-H1975 | 0.364 | 0.25 | 0.272 | 0.232 | 0.177 | 0.858 | 0.852 | 0.612 | 0.404 | 0.272 | 0.27 | 0.327 | 0.375 | 0.358 | 0.382 | 0.742 | 0.835 | 0.763 | 0.994 | 0.87
9 | NCI-H1993 | 0.418 | 0.396 | 0.532 | 0.353 | 0.525 | 0.881 | 0.658 | 0.579 | 0.501 | 0.465 | 0.563 | 0.504 | 0.508 | 0.507 | 0.539 | 0.663 | 0.811 | 0.863 | 0.825 | 0.695
10 | NCI-H2009 | 0.26 | 0.173 | 0.184 | 0.12 | 0.0876 | 0.947 | 0.936 | 0.684 | 0.314 | 0.141 | 0.344 | 0.271 | 0.29 | 0.307 | 0.264 | 0.913 | 1.02 | 0.819 | 0.728 | 0.466
11 | NCI-H2023 | 0.487 | 0.49 | 0.432 | 0.364 | 0.326 | 0.491 | 0.492 | 0.376 | 0.281 | 0.26 | 0.621 | 0.54 | 0.555 | 0.561 | 0.633 | 0.801 | 0.6 | 0.866 | 0.743 | 0.58
12 | NCI-H2085 | 0.485 | 0.297 | 0.195 | 0.214 | 0.159 | 0.93 | 0.806 | 0.408 | 0.193 | 0.158 | 0.62 | 0.568 | 0.472 | 0.5 | 0.514 | 0.892 | 0.858 | 0.718 | 0.776 | 0.707
13 | NCI-H2087 | 0.291 | 0.2 | 0.178 | 0.124 | 0.101 | 0.858 | 0.938 | 0.946 | 0.863 | 0.639 | 0.194 | 0.196 | 0.198 | 0.198 | 0.23 | 0.976 | 1.07 | 0.839 | 1.15 | 1.01
14 | NCI-H2126 | 0.641 | 0.425 | 0.551 | 0.424 | 0.309 | 0.966 | 0.9 | 0.915 | 0.607 | 0.369 | 0.571 | 0.55 | 0.588 | 0.561 | 0.531 | 0.603 | 0.826 | 0.765 | 0.737 | 0.752
